The test system of the experiment is CD2F1 mice, L1210 leukemia ip, survival T/C. Put plainly: NCI In Vivo Anticancer Drug Screen. Data for tumor model L1210 Leukemia (intraperitoneal) in CD2F1 (CDF1) mice. Particulars: higher = longer survival. In a few lines:
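Implant tumor; dose compound or vehicle; measure endpoint in both groups; report treated divided by control.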

[1] abbreviates: endpoint: mean survival time, dose: 75.0 mg/kg/injection, schedule: Q01DX001 (ip), vehicle: saline.
Setting [2] is: endpoint: mean survival time, dose: 150.0 mg/kg/injection, schedule: Q01DX001 (ip), vehicle: saline.
[3] abbreviates: endpoint: mean survival time, dose: 100.0 mg/kg/injection, schedule: Q04DX003 (ip), vehicle: saline with Tween-80.
[4] abbreviates: endpoint: mean survival time, dose: 200.0 mg/kg/injection, schedule: Q04DX003 (ip), vehicle: saline with Tween-80.
The mark [5] stands for this setting: endpoint: mean survival time, dose: 400.0 mg/kg/injection, schedule: Q04DX003 (ip), vehicle: saline with Tween-80.
[6] abbreviates: endpoint: mean survival time, dose: 100.0 mg/kg/injection, schedule: Q01DX009 (ip), vehicle: saline with Tween-80.
[7] abbreviates: endpoint: mean survival time, dose: 200.0 mg/kg/injection, schedule: Q01DX009 (ip), vehicle: saline with Tween-80.
[8] abbreviates: endpoint: mean survival time, dose: 400.0 mg/kg/injection, schedule: Q01DX009 (ip), vehicle: saline with Tween-80.
[9] abbreviates: endpoint: mean survival time, dose: 50.0 mg/kg/injection, schedule: Q01DX009 (ip), vehicle: saline with Tween-80.
Setting [10] is: endpoint: mean survival time, dose: 100.0 mg/kg/injection, schedule: Q04DX002 (ip), vehicle: saline with Tween-80.
The mark [11] stands for this setting: endpoint: mean survival time, dose: 200.0 mg/kg/injection, schedule: Q04DX002 (ip), vehicle: saline with Tween-80.

Where “and” joins values, the source holds several entries; their conditions need not be identical. Equal values may be shown once. Toxic doses and inconclusive results are not listed.

For the compound `CCN(CC)Cc1cc([N+](=O)[O-])ccc1O`, the T/C reads like this: under setting [1], 104 % of control; under setting [2], 100 % of control.

For the compound `COc1ccc([N+](=O)[O-])cc1CO/N=C(/CCC(=O)O)C(=O)O`, the T/C by setting is: under setting [3], 101 % of control; under setting [4], 106 % of control; under setting [5], 101 % of control.

As for `OCC1C(CO)C2CC1C1N=NN(c3ccccc3)C21` (stereo unspecified), the T/C (endpoint: mean survival time, dose: 100.0 mg/kg/injection, schedule: Q01DX001 (ip), vehicle: saline sonified) was 102 % of control; the T/C (endpoint: mean survival time, dose: 200.0 mg/kg/injection, schedule: Q01DX001 (ip), vehicle: saline sonified) was 100 % of control; the T/C (endpoint: mean survival time, dose: 400.0 mg/kg/injection, schedule: Q01DX001 (ip), vehicle: saline sonified) is 100 % of control.

As for `COC(=O)c1cc(N(CCCl)CCCl)ccc1N=Nc1ccc([N+](=O)[O-])cc1`, the T/C reads like this: (endpoint: mean survival time, dose: 100.0 mg/kg/injection, schedule: Q04DX003 (ip), vehicle: Klucel (hydroxypropylcellulose) (HPC)) 109 % of control; (endpoint: mean survival time, dose: 200.0 mg/kg/injection, schedule: Q04DX003 (ip), vehicle: Klucel (hydroxypropylcellulose) (HPC)) 115 % of control; (endpoint: mean survival time, dose: 400.0 mg/kg/injection, schedule: Q04DX003 (ip), vehicle: Klucel (hydroxypropylcellulose) (HPC)) 117 % of control.

In the case of `Nc1ccccc1OCCCn1cc(-c2ccc(Cl)c(Cl)c2)c(N)nc1=O`, the T/C is, setting by setting: (endpoint: mean survival time, dose: 50.0 mg/kg/injection, schedule: Q01DX009 (ip), vehicle: Klucel (hydroxypropylcellulose) (HPC)) 94 % of control; (endpoint: mean survival time, dose: 100.0 mg/kg/injection, schedule: Q01DX009 (ip), vehicle: Klucel (hydroxypropylcellulose) (HPC)) 101 % of control; (endpoint: mean survival time, dose: 200.0 mg/kg/injection, schedule: Q01DX009 (ip), vehicle: Klucel (hydroxypropylcellulose) (HPC)) 90 % of control.

For the compound `COC(=O)C1OC(C)(C)OC1C(=O)OC` (stereo unspecified), the T/C runs as follows: (endpoint: mean survival time, dose: 1.56 mg/kg/injection, schedule: Q01DX001 (ip), vehicle: saline with Tween-80) 103 % of control; (endpoint: mean survival time, dose: 3.12 mg/kg/injection, schedule: Q01DX001 (ip), vehicle: saline with Tween-80) 100 % of control; (endpoint: mean survival time, dose: 6.25 mg/kg/injection, schedule: Q01DX001 (ip), vehicle: saline with Tween-80) 95 % of control.

`CCC1CC2CN(CCc3c([nH]c4ccccc34)C(C(=O)OC)(c3cc4c(cc3OC)N(C)C3C(O)(C(=O)OC)C(OC(C)=O)C5(CC)C=CCN6CCC43C65)C2)C1` (stereo unspecified): the T/C is 102 % of control (endpoint: median survival time, dose: 0.06 mg/kg/injection, schedule: Q01DX009 (ip), vehicle: saline); 103 % of control (endpoint: median survival time, dose: 0.13 mg/kg/injection, schedule: Q01DX009 (ip), vehicle: saline); 105 % of control (endpoint: median survival time, dose: 0.25 mg/kg/injection, schedule: Q01DX009 (ip), vehicle: saline); 116 % of control (endpoint: median survival time, dose: 0.5 mg/kg/injection, schedule: Q01DX009 (ip), vehicle: saline); 113 % of control (endpoint: median survival time, dose: 0.5 mg/kg/injection, schedule: Q01DX009 (ip), vehicle: water); 120 % of control (endpoint: median survival time, dose: 1.0 mg/kg/injection, schedule: Q01DX009 (ip), vehicle: saline). Besides, the T/C was 116 % of control (endpoint: median survival time, dose: 1.0 mg/kg/injection, schedule: Q01DX009 (ip), vehicle: water) and 104 % of control (endpoint: median survival time, dose: 2.0 mg/kg/injection, schedule: Q01DX009 (ip), vehicle: water).

Regarding `c1cc[c]([Sn]([NH]c2ncnc3[nH]cnc23)([NH]c2ncnc3[nH]cnc23)[c]2ccccc2)cc1`, the T/C was 102 % of control (endpoint: median survival time, dose: 12.5 mg/kg/injection, schedule: Q01DX009 (ip), vehicle: saline with Tween-80); 98 % of control (endpoint: median survival time, dose: 12.5 mg/kg/injection, schedule: Q01DX009 (ip), vehicle: suspension in saline); 113 % of control (endpoint: median survival time, dose: 25.0 mg/kg/injection, schedule: Q01DX009 (ip), vehicle: saline with Tween-80); 154 % of control (endpoint: median survival time, dose: 25.0 mg/kg/injection, schedule: Q01DX009 (ip), vehicle: saline); 100 % of control (endpoint: median survival time, dose: 25.0 mg/kg/injection, schedule: Q01DX009 (ip), vehicle: suspension in saline); 118 % of control (endpoint: median survival time, dose: 50.0 mg/kg/injection, schedule: Q01DX009 (ip), vehicle: saline with Tween-80). Moreover, the T/C is 102 % of control (endpoint: median survival time, dose: 50.0 mg/kg/injection, schedule: Q01DX009 (ip), vehicle: suspension in saline); 112 % of control (endpoint: median survival time, dose: 100.0 mg/kg/injection, schedule: Q01DX009 (ip), vehicle: saline with Tween-80); 166 % of control (endpoint: median survival time, dose: 100.0 mg/kg/injection, schedule: Q01DX009 (ip), vehicle: saline); 102 % of control (endpoint: median survival time, dose: 100.0 mg/kg/injection, schedule: Q01DX009 (ip), vehicle: suspension in saline); 86 % of control (endpoint: median survival time, dose: 200.0 mg/kg/injection, schedule: Q01DX009 (ip), vehicle: saline with Tween-80); 203 % of control (endpoint: median survival time, dose: 200.0 mg/kg/injection, schedule: Q01DX009 (ip), vehicle: saline). Also, where the note is “endpoint: median survival time, dose: 200.0 mg/kg/injection, schedule: Q01DX009 (ip), vehicle: suspension in saline”, the T/C is 112 % of control.

In the case of `CC1(C)CCOC(CC(=O)OCc2ccccc2)=N1`, the T/C runs as follows: under setting [6], 96 % of control; under setting [3], 93 % of control; under setting [7], 96 % of control; under setting [4], 92 % of control; under setting [8], 95 % of control; under setting [5], 88 % of control.

As to `NNc1nc(=O)[nH]nc1Sc1ccccc1`, the T/C is, setting by setting: under setting [1], 96 % of control; under setting [2], 101 % of control; (endpoint: mean survival time, dose: 300.0 mg/kg/injection, schedule: Q01DX001 (ip), vehicle: saline) 97 % of control.

In the case of `CC(CN=[N+]=[N-])OC(=O)C(F)(F)F` (stereo unspecified), the T/C runs as follows: (endpoint: mean survival time, dose: 37.5 mg/kg/injection, schedule: Q01DX009 (ip), vehicle: saline) 94 % of control; under setting [1], 98 % of control; (endpoint: mean survival time, dose: 75.0 mg/kg/injection, schedule: Q01DX009 (ip), vehicle: saline) 94 % of control; under setting [2], 101 % of control.

As to `CSc1nnc(Sc2ccccc2)c(SC)n1`, the T/C was 101 % of control under setting [1] and 98 % of control under setting [2].

Consider `CCCC/C=C/C1CCCCC1C` (stereo unspecified), for which the T/C reads like this: under setting [9], 100 % of control; under setting [6], 104 % of control; under setting [7], 108 % of control.

For `CCOC(=O)c1c(C)[nH]c(C)cc1=O`, the T/C was 103 % of control (endpoint: mean survival time, dose: 100.0 mg/kg/injection, schedule: Q04DX002 (ip), vehicle: saline) and 108 % of control (endpoint: mean survival time, dose: 200.0 mg/kg/injection, schedule: Q04DX002 (ip), vehicle: saline).

Take `COC(=O)c1ccc(O)c(O)c1`: the T/C was 102 % of control under setting [6]; 99 % of control under setting [3]; 101 % of control under setting [7]; 102 % of control under setting [4]; 90 % of control under setting [8]; 91 % of control under setting [5].

Take `O=C(COc1ccc(Cl)c(Cl)c1)NCc1cccc(Cl)c1`: the T/C reads like this: under setting [3], 95 % of control; under setting [4], 93 % of control; under setting [5], 95 % of control.

For `O=C(O)C1=CCCc2ccc(Br)cc21`, the T/C (endpoint: median survival time, dose: 25.0 mg/kg/injection, schedule: Q04DX003 (ip), vehicle: saline with Tween-80) is 100 % of control; the T/C (endpoint: median survival time, dose: 50.0 mg/kg/injection, schedule: Q04DX003 (ip), vehicle: saline with Tween-80) is 100 % of control; the T/C (endpoint: median survival time, dose: 100.0 mg/kg/injection, schedule: Q04DX003 (ip), vehicle: saline with Tween-80) is 88 % of control; the T/C (endpoint: median survival time, dose: 200.0 mg/kg/injection, schedule: Q04DX003 (ip), vehicle: saline with Tween-80) is 88 % of control.

For `C1OC2OC3OCOC3C2O1` (stereo unspecified), the T/C under setting [3] is 101 % of control, the T/C under setting [4] was 95 % of control and the T/C under setting [5] is 95 % of control.

Consider `Cc1nc(-c2cccc(Cl)c2)oc1-c1ccccc1`, for which the T/C was 115 % of control under setting [10] and 121 % of control under setting [11].

As for `COc1cc(C=O)ccc1OC(=O)Nc1cc([N+](=O)[O-])ccc1Cl`, the T/C reads like this: under setting [9], 98 % of control and 102 % of control; (endpoint: mean survival time, dose: 100.0 mg/kg/injection, schedule: Q01DX001 (ip), vehicle: saline with Tween-80) 93 % of control; under setting [10], 92 % of control and 102 % of control; under setting [3], 93 % of control; (endpoint: mean survival time, dose: 200.0 mg/kg/injection, schedule: Q01DX001 (ip), vehicle: saline with Tween-80) 108 % of control; under setting [11], 91 % of control and 92 % of control. The T/C under setting [4] was 107 % of control; the T/C (endpoint: mean survival time, dose: 400.0 mg/kg/injection, schedule: Q01DX001 (ip), vehicle: saline with Tween-80) was 96 % of control; the T/C (endpoint: mean survival time, dose: 400.0 mg/kg/injection, schedule: Q04DX002 (ip), vehicle: saline with Tween-80) is 88 % of control and 96 % of control; the T/C under setting [5] is 100 % of control.

Source of the values: PubChem BioAssay AID256 (DTP/NCI, 2004).
